{"source": "paper PMC5650142", "about": "“GPR40 partial agonists and AgoPAMs: Differentiating effects on glucose and hormonal secretions in the rodent” (PLoS ONE, 2017)", "key": {"GK rats [1]": {"test_system": "GK rats", "assay": "Endogenous glucose production in vivo (2H/13C dual tracer);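 on Glucose production, Glycerol: absolute flux in micromoles per kg per minute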;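 on Glucose production, Glycogen: absolute flux in micromoles per kg per minute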;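 on Glucose production, TCA: absolute flux in micromoles per kg per minute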", "design": "species or system rat", "conditions": "GK rats, 30 mpk, individual animal values (data for Fig 8); 30 mg/kg", "protocol": "To evaluate the effects of the GPR40 partial and AgoPAM compounds on EGP in vivo, a 2H/13C dual tracer approach was used to calculate EGP and its contributing sources. Following the chronic treatments described above, 0.9% NaCl salinated deuterium oxide (D2O, Sigma-Aldrich, St. Louis, MO) was administered to all animals via intraperitoneal (IP) injection at dose volume of 20 ml/kg at 1 hr post lights on. Animals were then placed in clean cages and food was removed. After a 5 hour fast, blood glucose was measured and animals were dosed with 50 mg/kg [U-13C] glucose (Sigma-Aldrich, St. Louis, MO) IP at 5 ml/kg. Blood was collected via tail snip at time points from 60–150 min post treatment to measure blood glucose (via glucometer) as well as endogenous (12C-glucose) and exogenous (13C-glucose) via GCMS. Following the last tail blood collection, rats were anesthetized with isoflurane and cardiac blood was collected into K2EDTA tubes (Becton, Dickinson and Co., Franklin Lakes, NJ).\nThe serially collected blood samples were analyzed for 13C-glucose enrichment using GC-MS analysis. The % 13C glucose enrichments were then combined with the total glucose readings to calculate the concentration of 13C-glucose, and these values were modeled with a two-compartment model of whole body glucose metabolism to calculate the average EGP for the period from 0–150 minutes.\nTerminal blood samples were analyzed for relative 2H enrichment in plasma glucose using the monoacetone glucose method. Briefly, samples were extracted with 70% perchloric acid at a ratio of 50 μl perchloric acid per 1 ml plasma and centrifuged at 25,000 rcf for 10 min at 4°C. The supernatant was collected and the pH was adjusted to 6–8 using aqueous KOH. The samples were then lyophilized overnight. To convert plasma glucose to monoacetone glucose (MAG), acetone and concentrated sulfuric acid were added to the lyophilized samples and stirred for 4 hours at room temperature. Water was then added and the pH adjusted to 2.0 with 3M Na2CO3. Samples were stirred moderately for 18 hours at room temperature, the pH was adjusted to 7 with 3M Na2CO3, and the samples were completely dried by speed vacuum concentration. The resulting MAG samples were then extracted in hot ethyl acetate, dried overnight under a stream of N2 gas, and purified using Discovery DSC-18 SPE columns (6 ml, 1 g bed weight). For the SPE protocol, MAG samples were reconstituted in 3 ml water and passed over the columns which were pre-washed with 2 ml methanol. The columns were rinsed twice with 1 ml water and the MAG was eluted with 5% acetonitrile. The acetonitrile eluent was then transferred to a glass scintillation vial and freeze dried. Purified MAG samples were solubilized in 180 μl 90% acetonitrile for 2H NMR analysis which was performed using the lock channel of a 950 MHz Bruker NMR spectrometer (David H Murdock Research Institute, DHMRI Kannapolis, NC). Acquisition parameters were as follows: 90° pulse, D1 = 1 s, 1H broadband decoupling, NS = 3600, acquisition time ~ 1 hr. The 2H NMR spectra of the MAG samples were then analyzed using Matlab (The Mathworks Inc, Natick, MA) to model the NMR peaks with a Lorentzian lineshape, and the results were used to calculate integrals for each of the seven NMR resonances in the MAG spectrum. Peaks 2, 5, and 6s were then used to calculate the relative sources of EGP (i.e. gluconeogenesis from TCA cycle substrates, glucose production from triose phosphates, and glycogenolysis) and these values were combined with the total EGP measurement to calculate absolute fluxes of glucose production."}, "GK rats [2]": {"test_system": "GK rats", "assay": "GK rat chronic efficacy (28 days: glucose, food intake, body weight, GLP-1, GIP, PYY, insulin, glucagon)", "format": "in vivo", "conditions": "30 mpk; for Fasted glucose on day 28 (Fig 3B): day 28, fasted, individual animals", "protocol": "At the start of the study, fed (ambient) blood glucose was measured via glucometer at 1 h post lights on, and animals were selected and sorted into treatment groups based on ambient glucose (n = 10/ GK group, n = 6 WKY control). Blood for baseline incretin measurements was collected in the PM via tail vein. Rats were dosed via oral gavage (PO) at a volume of 5 ml/kg daily at approximately 12:30 PM with either vehicle (0.5% methylcellulose), AP1 at 30 mg/kg, or AP3 at 30 mg/kg. MK-8666, a GPR40 partial agonist synthesized at Merck & Co., Inc., Kenilworth, NJ USA [13], at 30 mg/kg was administered in feed (Research Diets, New Brunswick, NJ) and provided ad lib. All compounds were administered to achieve maximal efficacious exposures determined in acute efficacy studies similar to those acute studies described above. In brief, partial agonists and AgoPAMs were titrated in the acute GK rat experiment described above and the exposure associated with maximal efficacy in glucose lowering was noted. Partial agonists and AgoPAMs were then dosed to maintain those exposures up to 24h post dose. […] Rats from this group and the WKY controls were administered vehicle PO when the vehicle, AP1, and AP3 groups were treated. Fed blood glucose, food intake, and body weights were determined on days 10, 17, 23, and 28 of study at 2 h post lights on. Immediately after these measures were taken on days 10, 17, 23, and 28, food was removed. After 5h of fasting, animals were dosed with vehicle or compound and allowed to rest for an additional hour. Glucose, GLP-1, GIP, and PYY were measured after 6h of fasting at 1 hr post dose. Fed blood glucose is described by animals having had ad libidum access to feed up till the time of sampling and occurred at 2h post-lights on where rats were nearing the end of their nocturnal feeding cycle. Fasted blood glucose is described by blood glucose sampled after 6h of fasting where food was removed at 2h post lights on. Please note that the fasted sample was taken 1h post oral dosing. On day 10, blood was collected from the tail vein (20 μl) after morning glucose measures and after 6 hour fast from a subset of n = 3 rats per treatment group to determine the fed and fasted exposure of the compounds in circulation. The blood was stored at 4°C in 0.1 M sodium citrate for subsequent analysis of drug exposure.\nBlood for insulin, glucagon, GLP-1, GIP, and PYY measurements was collected into K2EDTA Microtainer tubes (BD, Franklin Lakes, NJ) pre-treated with DPP4 inhibitor (Millipore, Billerica, MA) and cOmplete™ Protease Inhibitor Cocktail Tablets (Roche Diagnostics, Indianapolis, IN). Tubes were centrifuged for 10 minutes at 5000 RPM, and plasma was aliquotted for analysis. Plasma insulin levels were measured via EIA (Mesoscale Discovery ELISA Kit, Gaithersburg MD). Rat plasma total GLP-1 was measured using Total GLP-1 (ver.2) Assay Kit (Cat#: K150JVC). The measurement of active GLP-1 was carried out in a similar manner as that described for total GLP-1 assay with the exception that MSD Active GLP-1 (ver. 2) assay kit (Cat# K150JWC) was used. Rat plasma glucagon was measured using an in-house glucagon assay developed as a MSD format sandwich immunoassay (Merck & Co., Inc., MRL, Kenilworth, NJ USA). The antibody specificity was cross validated via mass- spec using procedures described in Lee et al. Briefly, MSD Streptavidin Gold plates were coated with 2 μg/ml biotin mouse monoclonal antibody generated to glucagon. Test samples were added to the plates and a separate Sulfo- tagged monoclonal antibody was used to detect the captured glucagon protein (2 μg/ml). The ELISA was carried out in the standard reagents in the MSD format. The plate was read on the SECTOR Imager 6000 Reader. Metabolic hormones GIP (Gastric Inhibitory Polypeptide) and PYY (Peptide YY) were measured in rat plasma using the Rat Metabolic Magnetic Bead Panel (EMD Millipore, Billerica, MA). The assay was performed according to manufacturer protocol. […]"}}, "note": "“And” between values parts separate entries of the source, which are not always exact repeats. Identical values can stand only once.", "data": [{"smiles": "COc1ccc(F)c(-c2ccc([C@@H]3CCc4ccc([C@H](C5CC5)[C@H](C)C(=O)O)cc4O3)cc2)c1", "note": "[L-254]", "values": [{"measurement": "Glucose production, EGP Total", "setting": "GK rats [1]", "value": "61.3579 µmol/kg/min and 60.2311 µmol/kg/min and 73.9647 µmol/kg/min and 47.8618 µmol/kg/min and 64.0721 µmol/kg/min and 48.3077 µmol/kg/min and 46.8784 µmol/kg/min and 45.4367 µmol/kg/min and 55.8377 µmol/kg/min"}, {"measurement": "Glucose production, Glycerol", "setting": "GK rats [1]", "value": "10.657 µmol/kg/min and 6.4047 µmol/kg/min and 5.755 µmol/kg/min and 5.519 µmol/kg/min and 3.299 µmol/kg/min and 5.985 µmol/kg/min and 2.316 µmol/kg/min"}, {"measurement": "Glucose production, Glycogen", "setting": "GK rats [1]", "value": "22.6257 µmol/kg/min and 22.3444 µmol/kg/min and 14.5988 µmol/kg/min and 19.8177 µmol/kg/min and 18.6577 µmol/kg/min and 12.2721 µmol/kg/min and 17.7499 µmol/kg/min"}, {"measurement": "Glucose production, TCA", "setting": "GK rats [1]", "value": "26.9483 µmol/kg/min and 45.2155 µmol/kg/min and 27.5078 µmol/kg/min and 38.7357 µmol/kg/min and 26.3505 µmol/kg/min and 28.6217 µmol/kg/min and 25.3709 µmol/kg/min"}, {"measurement": "Glucose Over time (S2 File, Fig 2A)", "setting": "GK rats [2]; Day 0, individual animals", "value": "162 mg/dL and 163 mg/dL and 174 mg/dL and 167 mg/dL and 198 mg/dL and 181 mg/dL and 193 mg/dL and 168 mg/dL and 160 mg/dL and 171 mg/dL"}, {"measurement": "Glucose Over time (S2 File, Fig 2A)", "setting": "GK rats [2]; Day 10, individual animals", "value": "111 mg/dl and 110 mg/dl (2×) and 123 mg/dl and 100 mg/dl and 101 mg/dl and 106 mg/dl and 92 mg/dl and 99 mg/dl and 95 mg/dl"}, {"measurement": "Glucose Over time (S2 File, Fig 2A)", "setting": "GK rats [2]; Day 17, individual animals", "value": "110 mg/dl and 118 mg/dl and 103 mg/dl (2×) and 138 mg/dl and 137 mg/dl and 96 mg/dl and 95 mg/dl and 124 mg/dl and 108 mg/dl"}, {"measurement": "Glucose Over time (S2 File, Fig 2A)", "setting": "GK rats [2]; Day 23, individual animals", "value": "115 mg/dl and 109 mg/dl and 125 mg/dl and 106 mg/dl and 126 mg/dl (2×) and 127 mg/dl and 107 mg/dl and 117 mg/dl and 130 mg/dl"}, {"measurement": "Glucose Over time (S2 File, Fig 2A)", "setting": "GK rats [2]; Day 28, individual animals", "value": "114 mg/dl and 98 mg/dl and 108 mg/dl and 105 mg/dl and 131 mg/dl and 113 mg/dl (2×) and 126 mg/dl and 121 mg/dl and 107 mg/dl"}, {"measurement": "Fasted glucose on day 28 (Fig 3B)", "setting": "GK rats [2]", "value": "104 and 87 and 118 and 99 and 111 and 114 and 95 and 92"}]}, {"smiles": "C[C@H](C(=O)O)[C@H](c1ccc2c(c1)O[C@H](C1CN(Cc3cc(C(F)(F)F)ccc3C(F)(F)F)C1)CC2)C1CC1", "note": "[L-846]", "values": [{"measurement": "Glucose production, EGP Total", "setting": "GK rats [1]", "value": "61.0286 µmol/kg/min and 62.3968 µmol/kg/min and 60.5987 µmol/kg/min and 63.0498 µmol/kg/min and 58.2916 µmol/kg/min and 53.1262 µmol/kg/min and 50.1943 µmol/kg/min and 59.3349 µmol/kg/min"}, {"measurement": "Glucose production, Glycerol", "setting": "GK rats [1]", "value": "5.2866 µmol/kg/min and 7.6637 µmol/kg/min and 4.613 µmol/kg/min and 10.7135 µmol/kg/min and 9.19 µmol/kg/min and 7.224 µmol/kg/min and 6.179 µmol/kg/min and 7.862 µmol/kg/min"}, {"measurement": "Glucose production, Glycogen", "setting": "GK rats [1]", "value": "22.4627 µmol/kg/min and 29.4039 µmol/kg/min and 20.4093 µmol/kg/min and 17.187 µmol/kg/min and 19.1242 µmol/kg/min and 17.4656 µmol/kg/min and 16.9199 µmol/kg/min and 18.0022 µmol/kg/min"}, {"measurement": "Glucose production, TCA", "setting": "GK rats [1]", "value": "33.2793 µmol/kg/min and 25.3292 µmol/kg/min and 35.5765 µmol/kg/min and 35.1493 µmol/kg/min and 29.9769 µmol/kg/min and 28.4363 µmol/kg/min and 27.0955 µmol/kg/min and 33.4708 µmol/kg/min"}, {"measurement": "Glucose Over time (S2 File, Fig 2A)", "setting": "GK rats [2]; Day 0, individual animals", "value": "162 mg/dL and 164 mg/dL and 165 mg/dL and 161 mg/dL and 182 mg/dL and 169 mg/dL and 204 mg/dL and 174 mg/dL and 186 mg/dL and 171 mg/dL"}, {"measurement": "Glucose Over time (S2 File, Fig 2A)", "setting": "GK rats [2]; Day 10, individual animals", "value": "98 mg/dl and 122 mg/dl and 115 mg/dl and 114 mg/dl and 99 mg/dl (2×) and 103 mg/dl and 104 mg/dl and 100 mg/dl and 85 mg/dl"}, {"measurement": "Glucose Over time (S2 File, Fig 2A)", "setting": "GK rats [2]; Day 17, individual animals", "value": "78 mg/dl and 96 mg/dl and 115 mg/dl and 110 mg/dl (2×) and 103 mg/dl and 108 mg/dl and 107 mg/dl and 101 mg/dl and 109 mg/dl"}, {"measurement": "Glucose Over time (S2 File, Fig 2A)", "setting": "GK rats [2]; Day 23, individual animals", "value": "101 mg/dL and 120 mg/dL and 118 mg/dL and 110 mg/dL and 107 mg/dL and 103 mg/dL and 114 mg/dL and 129 mg/dL and 102 mg/dL and 106 mg/dL"}, {"measurement": "Glucose Over time (S2 File, Fig 2A)", "setting": "GK rats [2]; Day 28, individual animals", "value": "112 mg/dl and 106 mg/dl and 113 mg/dl (3×) and 116 mg/dl and 101 mg/dl and 141 mg/dl and 132 mg/dl and 119 mg/dl"}, {"measurement": "Fasted glucose on day 28 (Fig 3B)", "setting": "GK rats [2]", "value": "104 and 110 and 84 and 100 and 96 and 87 and 101 and 99 and 103"}]}]}
